Measured values as given in patent publication EP1137645B1, “ALPHA-METHYLBENZYL-CONTAINING THIOUREA INHIBITORS OF HERPES VIRUSES CONTAINING A […] GROUP” (Wyeth, priority 1998, dated 2000).
Converted amounts (≈) assume the structure as drawn. Read-outs that look alike come from different tables or passages of the source.

Key:
VZV strain Ellen = assay: VZV antiviral (ELISA) assay; format: cell-based
Procedure: For the generation of stock VZV to be used in the assay, VZV strain Ellen (ATCC #VR-1367) is used to infect human foreskin fibroblast (HFF) cells at low multiplicity (less than 0.1) and incubated overnight at 37°C in 5% CO2. After the overnight incubation, the mixture of uninfected and VZV-infected HFF infected cells are then harvested and added to each well of 96-well plates (3.5x10^4 cells in 100 µl DMEM supplemented with 2% FBS) which contain test compound or the reference standard drug control (in 100µl DMEM supplemented with 2% FBS per well). These cells are incubated for three days at 37°C in 5% CO2, then fixed for ELISA assay. The primary antibody is murine anti-VZV glycoprotein II monoclonal antibody (Applied Biosystems, Inc. #13-145-100) and the secondary antibody is goat anti-mouse IgG linked to β-galactosidase. Thus the extent of viral replication is determined by assessing β-galactosidase activity by quantifying the generation of the 4-methyl umbelliferone fluorescent cleavage product after addition of the methyl umbelliferyl-β-D-galactoside (Sigma #M1633) substrate on a microfluorimeter (365nm for excitation and 450nm for emission). Antiviral activity (IC50) of the test compound is determined by comparing the flourescence obtained in absence of compound to that obtained in the presence of compound.

[1] = test system: HCMV recombinant mutant virus whose genome contains the prokaryotic beta-glucuronidase gene; assay: microbe, parasite or virus in culture; format: cell-based, human cytomegalovirus; details: Human betaherpesvirus 5, Fibroblast
Text: Microtiter plate assay. Ninety-six well plate cultures of human foreskin fibroblasts are infected in the presence of inhibitor compound with a HCMV recombinant mutant virus whose genome contains the prokaryotic beta-glucuronidase gene (Jefferson, R. A., S. M. Burgess, and D. Hirsh. 1986. Beta-glucuronidase from Escherichia coli as a gene fusion marker. Proc. Natl. Acad. Sci. USA 83:8447-8451) whose expression is controlled by a viral promoter. An example of such a virus is RV145 (Jones, T. R., V. P. Muzithras, and Y. Gluzman. 1991. Replacement mutagenesis of the human cytomegalovirus genome: US10 and US11 gene products are nonessential. J. Virol. 65:5860-5872). Since it is under the control of a viral promoter, beta-glucuronidase expression is an indirect indicator of growth and replication of HCMV in this assay. At 96 hours post-infection, the infected cell lysates are prepared (using 50mM sodium phosphate [pH7.0] containing 0.1% Triton X-100 and 0.1% sarkosyl) and assayed for beta-glucuronidase activity using a substrate for the enzyme which when cleaved yields either a product which can be measured colorimetrically in a spectrophotometer or fluorescently in a microfluorimeter. Examples of such substrates are p-nitrophenyl-beta-D-glucuronide and methylumbelliferylglucuronide, respectively. The presence of an antiviral compound is indicated by the reduced expression of the HCMV genome resident beta-glucuronidase gene, compared to the absence of inhibitor. […] Data from this assay generated using varying amounts of inhibitor compound is also used to estimate the IC50 of an inhibitor compound.

HSV- I = assay: HSV antiviral (ELISA) assay; format: cell-based; details: read-out: IC50 (ug/ml) HSV
Procedure: Vero cells (ATCC #CCL-81) are plated on 96-well tissue culture plates at 3.5x10^4 cells per 100µl tissue culture DMEM (Dulbecco's modified Eagle media) supplemented with 2% fetal bovine serum (FBS) in each well. After overnight incubation @ 37°C (in 5% CO2) and 30 minutes prior to infection with HSV- I (multiplicity of infection equal to 0.006), cells are either untreated, or treated with test compound (multiple concentrations) or reference standard drug control. After approximately 24 hours post-infection incubation @ 37°C (in 5% CO2), cells are fixed for ELISA assay. The primary antibody is murine anti-HSV glycoprotein D monoclonal primary antibody and the secondary antibody is goat anti-mouse IgG linked to β-galactosidase. Thus the extent of viral replication is determined by assessing β-galactosidase activity by quantifying the generation of the 4-methyl umbelliferone fluorescent cleavage product after addition of the methyl umbelliferyl-β-D-galactoside (Sigma #M1633) substrate on a microfluorimeter (365nm for excitation and 450nm for emission). Antiviral activity (IC50) of the test compound is determined by comparing the flourescence obtained in absence of compound to that obtained in the presence of compound.

[2] = Human alphaherpesvirus 3, HFF, read-out: % inhibition 10 ug/ml VZV
[3] = Human alphaherpesvirus 3, HFF, read-out: IC50 (ug/ml) VZV
[4] = read-out: IC50 ug/ml HCMV, HCMV, human foreskin fibroblasts
[5] = Human alphaherpesvirus 3, HFF, read-out: IC50 (ug/ml) VZV, VZV strain Ellen, HFF cells, ELISA

| SMILES | inhibition at 10 µg/mL (VZV strain Ellen; [2]) | IC50 (VZV strain Ellen; [3]) | IC50 [1, 4] | IC50 (HSV- I; HSV- I, Vero cells, ELISA) | IC50 (HSV- I; Vero) | IC50 (VZV strain Ellen; [5]) | inhibition at 10 µg/mL (VZV strain Ellen; Human alphaherpesvirus 3, read-out: % inhibition 10 ug/ml VZV, 10 ug/ml, VZV strain Ellen, HFF cells, ELISA) | IC50 (VZV strain Ellen; Human alphaherpesvirus 3, VZV strain Ellen, HFF cells, ELISA, read-out: IC50 (ug/ml) VZV) | IC50 ([1]; read-out: IC50 ug/ml HCMV) |
| --- | --- | --- | --- | --- | --- | --- | --- | --- | --- |
| COc1cc(OC)c(NC(=S)Nc2ccc(NC(=O)c3ccccc3C)cc2)cc1Cl [Example 114, N-{4-[3-(5-Chloro-2,4-dimethoxy-phenyl)-thioureido]-phenyl}-2-methyl-benzamide] | 17% | > 10 µg/mL | 5 µg/mL (≈ 11 µM) | 0.3 µg/mL (≈ 0.658 µM) |  |  |  |  |  |
| COc1cc(OC)c(NC(=S)Nc2ccc(NC(=O)c3ccccc3OC(C)=O)cc2)cc1Cl [Example 115, Acetic acid 2-{4-[3-(5-chloro-2,4-dimethoxy-phenyl)-thioureido]-phenyl-carbamoyl}-phenyl ester] | 98% | 4 µg/mL (≈ 8 µM) | 8 µg/mL (≈ 16 µM) | 4 µg/mL (≈ 8 µM) |  |  |  |  |  |
| COc1cc(OC)c(NC(=S)Nc2ccc(NC(=O)c3ccc(F)cc3)cc2)cc1Cl [Example 116, N-{4-[3-(5-Chloro-2,4-dimethoxy-phenyl)-thioureido]-phenyl}-4-fluoro-benzamide] | 0% | > 10 µg/mL | 3 µg/mL (≈ 6.52 µM) |  | 2 µg/mL (≈ 4.35 µM) |  |  |  |  |
| COc1cc(OC)c(NC(=S)Nc2ccc(NC(=O)c3cccc(F)c3)cc2)cc1Cl [Example 117, N-{4-[3-(5-Chloro-2,4-dimethoxy-phenyl)-thioureido]-phenyl}-3-fluoro-benzamide] | 15% | > 10 µg/mL | 3 µg/mL (≈ 6.52 µM) | 0.3 µg/mL (≈ 0.652 µM) |  |  |  |  |  |
| COc1cc(OC)c(NC(=S)Nc2ccc(NC(=O)c3ccccc3F)cc2)cc1Cl [Example 118, N-{4-[3-(5-Chloro-2,4-dimethoxy-phenyl)-thioureido]-phenyl}-2-fluoro-benzamide] |  |  | 3 µg/mL (≈ 6.52 µM) |  | 0.15 µg/mL (≈ 0.326 µM) | > 10 µg/mL |  |  |  |
| COc1cc(OC)c(NC(=S)Nc2ccc(NC(=O)c3ccccc3OC)cc2)cc1Cl [Example 119, N-{4-[3-(5-Chloro-2,4-dimethoxy-phenyl)-thioureido]-phenyl}-2-methoxy-benzamide] | 1% | > 10 µg/mL | > 10 µg/mL | 0.5 µg/mL (≈ 1.06 µM) |  |  |  |  |  |
| COc1cccc(C(=O)Nc2ccc(NC(=S)Nc3cc(Cl)c(OC)cc3OC)cc2)c1 [Example 120, N-{4-[3-(5-Chloro-2,4-dimethoxy-phenyl)-thioureido]-phenyl}-3-methoxy-benzamide] | 25% | > 10 µg/mL | 5 µg/mL (≈ 10.6 µM) | 0.8 µg/mL (≈ 1.7 µM) |  |  |  |  |  |
| COc1ccc(C(=O)Nc2ccc(NC(=S)Nc3cc(Cl)c(OC)cc3OC)cc2)cc1 [Example 121, N-{4-[3-(5-Chloro-2,4-dimethoxy-phenyl)-thioureido]-phenyl}-4-methoxy-benzamide] | 0% | > 10 µg/mL | 6 µg/mL (≈ 12.7 µM) | 0.3 µg/mL (≈ 0.636 µM) |  |  |  |  |  |
| COc1cc(OC)c(NC(=S)Nc2ccc(NC(=O)c3ccccc3)cc2)cc1Cl [Example 122, N-{4-[3-(5-Chloro-2,4-dimethoxy-phenyl)-thioureido]-phenyl}-benzamide] | 13% | > 10 µg/mL | 4 µg/mL (≈ 9.05 µM) | 0.3 µg/mL (≈ 0.679 µM) |  |  |  |  |  |
| COc1c(Cl)cc(NC(=S)Nc2ccc(NC(=O)c3ccc(F)cc3)cc2)cc1Cl [Example 133, N-{4-[3-(3,5-Dichloro-4-methoxy-phenyl)-thioureido]-phenyl}-4-fluoro-benzamide] | 36% | > 10 µg/mL | 0.6 µg/mL (≈ 1.29 µM) | 7 µg/mL (≈ 15.1 µM) |  |  |  |  |  |
| COc1cc(OC)c(NC(=S)Nc2ccc(NC(=O)c3cccc(NC(C)=O)c3)cc2)cc1Cl [Example 134, 3-Acetylamino-N-{4-[3-(5-chloro-2,4-dimethoxy-phenyl)-thioureido]-phenyl}-benzamide] | 50% | > 10 µg/mL | 4 µg/mL (≈ 8.02 µM) | > 10 µg/mL |  |  |  |  |  |
| COc1cc(OC)c(NC(=S)Nc2ccc(NC(=O)c3cccc([N+](=O)[O-])c3)cc2)cc1Cl [Example 135, N-{4-[3-(5-Chloro-2,4-dimethoxy-phenyl)-thioureido]-phenyl}-3-nitro-benzamide] | 0% | > 10 µg/mL | 5 µg/mL (≈ 10.3 µM) | 1.5 µg/mL (≈ 3.08 µM) |  |  |  |  |  |
| COc1cc(OC)c(NC(=S)Nc2ccc(NC(=O)c3cccc(N(C)C)c3)cc2)cc1Cl [Example 136, N-{4-[3-(5-Chloro-2,4-dimethoxy-phenyl)-thioureido]-phenyl}-3-dimethylamino-benzamide] | 40% | > 10 µg/mL | 10 µg/mL (≈ 20.6 µM) | 1 µg/mL (≈ 2.06 µM) |  |  |  |  |  |
| COc1cc(OC)c(NC(=S)Nc2ccc(NC(=O)c3cccc(NS(C)(=O)=O)c3)cc2)cc1Cl [Example 137, N-{4-[3-(5-Chloro-2,4-dimethoxy-phenyl)-thioureido]-phenyl}-3-methane-sulfony-amino-benzamide] | 72% |  | 10 µg/mL (≈ 18.7 µM) |  | 10 µg/mL (≈ 18.7 µM) | > 15 µg/mL |  |  |  |
| COc1cc(OC)c(NC(=S)Nc2ccc(NC(=O)c3ccccc3C(F)(F)F)cc2)cc1Cl [Example 138, N-{4-[3-(5-Chloro-2,4-dimethoxy-phenyl)-thioureido]-phenyl}-2-trifluoro-methyl-benzamide] | 57% | > 10 µg/mL | 8 µg/mL (≈ 15.7 µM) | 1 µg/mL (≈ 1.96 µM) |  |  |  |  |  |
| COc1cc(OC)c(NC(=S)Nc2ccc(NC(=O)c3ccccc3O)cc2)cc1Cl [Example 139, N-{4-[3-(5-Chloro-2,4-dimethoxy-phenyl)-thioureido]-phenyl}-2-hydroxy-benzamide] | 95% | 4 µg/mL (≈ 8.73 µM) | 6 µg/mL (≈ 13.1 µM) | 6 µg/mL (≈ 13.1 µM) |  |  |  |  |  |
| COc1cc(OC)c(NC(=S)Nc2ccc(NC(=O)c3c(F)cccc3F)cc2)cc1Cl [Example 140, N-{4-[3-(5-Chloro-2,4-dimethoxy-phenyl)-thioureido]-phenyl}-2,6-difluoro-benzamide] | 65% | 10 µg/mL (≈ 20.9 µM) | 4 µg/mL (≈ 8.37 µM) | 0.15 µg/mL (≈ 0.314 µM) |  |  |  |  |  |
| COc1cc(OC)c(NC(=S)Nc2ccc(NC(=O)c3ccccc3Cl)cc2)cc1Cl [Example 141, 2-Chloro-N-{4-[3-(5-chloro-2,4-dimethoxy-phenyl)-thioureido]-phenyl}-benzamide] | 40% | > 10 µg/mL | 6 µg/mL (≈ 12.6 µM) | 0.25 µg/mL (≈ 0.525 µM) |  |  |  |  |  |
| COc1cc(OC)c(NC(=S)Nc2ccc(NC(=O)c3ccccc3Br)cc2)cc1Cl [Example 142, 2-Bromo-N-{4-[3-(5-chloro-2,4-dimethoxy-phenyl)-thioureido]-phenyl}-benzamide] |  |  |  | 0.4 µg/mL (≈ 0.768 µM) |  |  | 51% | > 15 µg/mL | 10 µg/mL (≈ 19.2 µM) |
| COc1cc(OC)c(NC(=S)Nc2ccc(NC(=O)c3ccccc3[N+](=O)[O-])cc2)cc1Cl [Example 143, N-{4-[3-(5-Chloro-2,4-dimethoxy-phenyl)-thioureido]-phenyl}-2-nitro-benzamide] | 68% | > 15 µg/mL | > 10 µg/mL | 1 µg/mL (≈ 2.05 µM) |  |  |  |  |  |
